{"source": "paper PMC9882606", "about": "“Rationally designed inhibitors of the Musashi protein-RNA interaction by hotspot mimicry” (Research Square, 2023)", "key": {"MSI2 [1]": {"biological_target": "T1, MSI2 (Homo sapiens, UniProt Q96DH6)", "T1 sequence (Q96DH6 whole entry)": "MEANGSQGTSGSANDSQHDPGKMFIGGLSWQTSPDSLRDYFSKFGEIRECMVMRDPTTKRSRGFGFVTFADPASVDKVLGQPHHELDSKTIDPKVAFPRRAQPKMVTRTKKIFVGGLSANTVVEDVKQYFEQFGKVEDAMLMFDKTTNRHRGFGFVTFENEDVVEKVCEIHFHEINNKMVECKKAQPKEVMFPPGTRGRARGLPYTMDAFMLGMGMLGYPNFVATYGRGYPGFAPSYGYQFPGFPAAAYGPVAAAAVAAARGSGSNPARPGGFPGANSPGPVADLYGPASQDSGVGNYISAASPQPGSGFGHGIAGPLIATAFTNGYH", "test": "Cellular thermal shift assay (CETSA) in PC9 cells", "format": "cell-based", "design": "endogenous in cells; host or cells: PC9", "conditions": "PC9, 3 hours, 20 μM or 40 μM, heated to 49 °C", "source_text": "To explore the effect of these MSI2 inhibitors in a cancer-relevant cellular context, we selected two MSI2-dependent cancer cell lines: non-small cell lung cancer cell line PC9 and leukemia cell line K562 [73, 98–101]. Upon treatment of PC9 cells with Ro, R12–8–44–3, or negative control R12-neg, we found at multiple time points that cellular MSI2 protein levels were unchanged (Figure 6a). To confirm target engagement, we therefore adapted the cellular thermal shift assay (CETSA). […]\nFigure 6: Direct cellular engagement of MSI2 interaction by R12–44–3. […] MSI2 protein abundance was then quantified and normalized to untreated sample. One representative image is shown; quantification is presented as the average ± S.E.M. from 3 independent replicates. […] Cells were briefly incubated at temperatures between 40 °C to 67 °C, then centrifuged and the amount of MSI2 remaining in the soluble fraction was quantified by Western blotting. […] One representative image is shown; quantification is presented as the average ± S.E.M. from 3 independent replicates, normalized first to beta-actin and then to DMSO control. […] One representative image is shown; quantification is presented as the average ± S.E.M. from 3 independent replicates, normalized first to beta-actin and then to DMSO control. […]"}, "MSI2 [2]": {"biological_target": "T1, MSI2", "test": "mRNA immunoprecipitation (RIP) with anti-MSI2 in PC9 cells", "format": "cell-based", "design": "endogenous in cells; host or cells: PC9", "conditions": "PC9, 10 μM, 8 hours", "source_text": "Among previously described targets of MSI2 are PTP4A, SMAD3, EGFR, and MSI2 itself. To test for disruption of MSI2 with these cognate mRNAs upon treatment with R12–8–44–3, we used mRNA immunoprecipitation (RIP): we used an anti-MSI2 antibody to immunoprecipitate MSI2, then reverse transcribed and analyzed by qPCR to determine the amount of each specific mRNA that was bound to MSI2. As an important control to ensure that the resulting mRNA was indeed brought down by MSI2, we additionally verified that using a negative control antibody (instead of anti-MSI2) brought with it 100-fold less of each target mRNA (Figure S10). As a separate negative control, GAPDH mRNA was also quantified in the context of these studies (since GAPDH is not thought to be a target of MSI2).\nPC9 cells were then treated with 10 μM of each compound for 8 hours and then analyzed by RIP.\nFigure 7: Cellular characterization of MSI2 inhibition by R12–8–44–3. (A) Quantification of mRNA immunoprecipitation (RIP) results. […] After immunoprecipitation with anti-MSI2, mRNA targets were quantified. The amount of each target mRNA in the pulldown was calculated relative to the input, and results from all targets were normalized to PTP4A1. […] Cells were treated with indicated compounds at two concentrations (5 μM and 20 μM) for 48 hours, then protein levels of relevant MSI2 targets were determined (EGFR, SMAD3, and MSI2). […]"}}, "data": [{"smiles": "Cc1cc(C(=O)OCc2nc(N)c3c(C)c(C)sc3n2)c(N)cc1F", "note": "[R12–8–44–3]", "values": [{"measurement": "soluble MSI2 after heating (CETSA)", "setting": "MSI2 [1]", "value": "confers protection against thermal-induced aggregation"}, {"measurement": "amount of target mRNA associated with MSI2 (PTP4A, SMAD3, EGFR, MSI2)", "setting": "MSI2 [2]", "value": "statistically significant reduction in the amount of mRNA associated with MSI2"}]}]}
